# Laboratory results as given in patent US10532066B2, “Surfactant lipids, compositions thereof, and uses thereof” (National Jewish Health, priority 2007, dated 2020).
# Experiments:
# [1] = test system: Respiratory Syncytial Virus (RSV); assay: RSV-induced cytokine production in BEAS2B cells; assay type: cell-based
# [2] = target: T1, TLR9 (Mus musculus, UniProt Q9EQU3); assay: TLR agonist TNFα production in RAW 264.7 cells, TLR9; assay type: cell-based; details: CpG rich DNA, 24 h
# T1 construct: endogenous in cells; host or cells: RAW 264.7
# Protocol: In this experiment, multiple TLRs were stimulated with defined TLR agonists for 24 h and the TNFα production was measured. In each case, the maximal stimulation by agonist is set at 100% and the antagonism by POPG is expressed as the relative % response. The Controls consist of no treatment, or treatment with POPG in the absence of agonist as indicated. The agonists for the TLRs consist of Pam3Cys for TLR1/2, Mycoplasma pneumoniae membranes as an agonist for TLR2, mycoplasma derived MALP2 as an agonist for TLR 2/6, double stranded RNA (poly IC) for TLR3, Gram-negative lipopolysaccharide for TLR4, and CpG rich DNA as an agonist for TLR9. The TLR4 panel also contains the antagonist polymyxin B (PB) for comparison with POPG.
# [3] = target: T2, MD-2 binding to sTLR4 (Homo sapiens, UniProt Q9Y6Y9); assay: Phospholipid competition for MD-2-sTLR4 binding
# T2 construct: made in house; host or cells: baculovirus-insect cell expression system
# Protocol: CD14 (2 μg) or sTLR4 (100 ng) in aliquots of 20 μl of buffer B were pipeted onto a 96-well plate, and the solvent evaporated using a warm air dryer. […] The amount of bound LBP or MD-2 was detected using specific antibodies.
# [4] = target: sTLR4 (Homo sapiens, UniProt O00206); assay: sTLR4 binding to solid phase POPG; details: sTLR4 1 μg/ml
# Protocol: (A) POPG (1.25 nmole) was placed onto microtiter wells and the solvent evaporated. After blocking nonspecific binding with buffer A, MD-2, sTLR4 and PstB2 (1 μg/ml) in buffer A were added and incubated at 37° C. for 1 h. The binding of recombinant proteins to POPG was detected using anti-His antibody. […] The data shown are the means±S.E. from three separate experiments each with duplicate determinations.
# [5] = test system: Respiratory Syncytial Virus (RSV); assay: Cytopathic effects of RSV upon BEAS2B cells (photomicrography); assay type: cell-based
# Protocol: Monolayers of BEAS2B cells were infected with RSV at a multiplicity of 3 for 72 h. Infections were performed on cells in either the absence or the presence of POPG (200 ug/ml). The cell monolayers were photographed at a magnification of 200×. Controls consisted of no viral challenge in either the presence or absence of POPG as indicated.
# Monolayers of BEAS2B cells were infected with RSV at a multiplicity of 3 for 72 h. Infections were performed on cells in either the absence (b) or the presence (c,f) of POPG (200 ug/ml) and POPC (200 ug/ml) as indicated. Cells were photographed at a magnification of 200×. Controls (a,d,e) consisted of cell layers either not exposed to virus or exposed to POPG, and POPC in the absence of virus as indicated.
# Monolayers of BEAS2B cells were infected with RSV at a multiplicity of 0.5-1, in either the presence or absence of 200 ug/ml POPG, or 200 ug/ml POPC, as indicated.
# Monolayers of BEAS2B cells were either uninfected (CONL) or challenged with RSV at a multiplicity of 0.5/cell (RSV). Where indicated in the FIG. 44, RSV challenged cells were also treated with POPC (200 ug/ml) or POPG (200 ug/ml) liposomes; or POPG nanodiscs (nanoPOPG) at concentrations ranging from 100-300 ug/ml. Selected panels and fields are also shown at 400× magnification in FIG. 45.
# Where indicated in FIG. 46, RSV challenged cells were also treated with nanodisc forms of dipalmitoyl-phosphatidylcholine (nanoDPPC), palmitoyl-oleoyl-phosphatidylcholine (nanoPOPC), or dioleoyl-phosphatidylcholine (nanoDOPC), dipalmitoyl-phosphatidylglycerol (nanoDPPG), dimyristoyl-phosphatidylglycerol (nanoDMPG), or dioleoyl-phosphatidylglycerol (nanoDOPG). At 72 h after infection, the cultures were examined by photomicrography at a magnification of 200×.
# [6] = target: T3, TLR3 (Homo sapiens, UniProt O15455); assay: TLR agonist IL-8 production in primary human neutrophils, TLR3; assay type: cell-based; design: endogenous in cells; host or cells: primary human neutrophils; details: poly IC, 5-24 h
# T3 sequence (O15455 24-904): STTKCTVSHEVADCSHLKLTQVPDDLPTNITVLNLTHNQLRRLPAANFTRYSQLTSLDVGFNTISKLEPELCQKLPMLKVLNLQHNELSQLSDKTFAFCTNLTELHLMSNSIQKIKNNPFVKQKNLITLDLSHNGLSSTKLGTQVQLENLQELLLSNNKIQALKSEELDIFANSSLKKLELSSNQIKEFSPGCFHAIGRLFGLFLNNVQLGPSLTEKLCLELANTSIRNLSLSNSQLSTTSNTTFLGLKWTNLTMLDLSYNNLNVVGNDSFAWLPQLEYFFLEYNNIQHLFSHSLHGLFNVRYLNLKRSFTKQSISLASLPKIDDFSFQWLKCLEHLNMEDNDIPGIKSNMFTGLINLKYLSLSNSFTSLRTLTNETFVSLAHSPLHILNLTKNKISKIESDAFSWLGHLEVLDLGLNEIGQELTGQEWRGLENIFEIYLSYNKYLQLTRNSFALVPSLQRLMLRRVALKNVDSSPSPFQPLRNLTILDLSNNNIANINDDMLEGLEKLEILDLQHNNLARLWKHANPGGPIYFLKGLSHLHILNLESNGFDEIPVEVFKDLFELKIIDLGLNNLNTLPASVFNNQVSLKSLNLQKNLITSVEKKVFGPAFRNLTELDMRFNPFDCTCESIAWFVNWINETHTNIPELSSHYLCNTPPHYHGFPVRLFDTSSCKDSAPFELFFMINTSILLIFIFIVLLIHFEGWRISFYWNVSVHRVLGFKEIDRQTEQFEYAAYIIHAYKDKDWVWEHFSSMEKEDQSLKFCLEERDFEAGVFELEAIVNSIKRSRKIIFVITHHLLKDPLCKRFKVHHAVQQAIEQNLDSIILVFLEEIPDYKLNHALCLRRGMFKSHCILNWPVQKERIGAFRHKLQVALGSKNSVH
# Protocol: In this experiment, multiple TLRs were stimulated with defined TLR agonists for 5-24 h as indicated, and the IL-8 production was measured. In each case the maximal stimulation by agonist is set at 100% and the antagonism by POPG is expressed as the relative % response. The Controls consist of no treatment, or treatment with POPG, in the absence of agonist as indicated. The agonists for the TLRs consist of Pam3Cys for TLR1/2, double stranded RNA (poly IC) for TLR3, Gram-negative lipopolysaccharide (LPS) for TLR4, and single stranded RNA (polyU) for TLR7/8.
# [7] = test system: influenza-A virus H3N2; assay type: cell-based; details: BEAS2B, multiplicities 1-10, 24, 48 and 72 h, 200 ug/ml POPG added 30 minutes prior
# [8] = RSV multiplicity 3, 48 h, lipid 200 ug/ml
# T2 sequence (Q9Y6Y9 19-160): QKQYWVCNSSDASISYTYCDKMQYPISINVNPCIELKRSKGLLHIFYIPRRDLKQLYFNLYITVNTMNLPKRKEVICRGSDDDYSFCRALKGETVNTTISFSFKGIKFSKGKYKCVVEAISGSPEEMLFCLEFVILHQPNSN
# T1 sequence (Q9EQU3 26-1032): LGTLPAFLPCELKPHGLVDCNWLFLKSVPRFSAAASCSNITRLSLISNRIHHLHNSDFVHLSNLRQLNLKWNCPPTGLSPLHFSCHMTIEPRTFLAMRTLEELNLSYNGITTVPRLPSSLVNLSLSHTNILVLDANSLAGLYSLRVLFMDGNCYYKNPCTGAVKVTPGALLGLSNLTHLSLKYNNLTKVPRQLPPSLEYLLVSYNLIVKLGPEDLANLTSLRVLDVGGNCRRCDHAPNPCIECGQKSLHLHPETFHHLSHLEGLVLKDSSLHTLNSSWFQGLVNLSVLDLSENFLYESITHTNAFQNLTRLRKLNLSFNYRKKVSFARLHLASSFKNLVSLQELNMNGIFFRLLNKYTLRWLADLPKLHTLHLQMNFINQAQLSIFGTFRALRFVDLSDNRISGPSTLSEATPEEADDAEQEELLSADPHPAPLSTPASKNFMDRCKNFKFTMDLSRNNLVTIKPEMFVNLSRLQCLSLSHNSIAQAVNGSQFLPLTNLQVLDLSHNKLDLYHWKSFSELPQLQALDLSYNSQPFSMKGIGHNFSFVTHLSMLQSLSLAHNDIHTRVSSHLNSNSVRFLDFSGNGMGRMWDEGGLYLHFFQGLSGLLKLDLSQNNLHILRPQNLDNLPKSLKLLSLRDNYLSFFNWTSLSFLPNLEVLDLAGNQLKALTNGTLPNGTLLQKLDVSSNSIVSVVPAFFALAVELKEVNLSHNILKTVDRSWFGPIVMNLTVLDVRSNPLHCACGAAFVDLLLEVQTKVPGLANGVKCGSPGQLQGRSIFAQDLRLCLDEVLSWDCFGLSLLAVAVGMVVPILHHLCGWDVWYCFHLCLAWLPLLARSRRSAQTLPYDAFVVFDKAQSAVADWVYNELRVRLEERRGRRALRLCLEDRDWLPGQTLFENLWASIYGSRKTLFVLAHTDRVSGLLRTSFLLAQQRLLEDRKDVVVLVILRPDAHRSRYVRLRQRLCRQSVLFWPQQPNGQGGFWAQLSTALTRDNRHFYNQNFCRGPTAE
# Sequence of sTLR4 (O00206 24-631): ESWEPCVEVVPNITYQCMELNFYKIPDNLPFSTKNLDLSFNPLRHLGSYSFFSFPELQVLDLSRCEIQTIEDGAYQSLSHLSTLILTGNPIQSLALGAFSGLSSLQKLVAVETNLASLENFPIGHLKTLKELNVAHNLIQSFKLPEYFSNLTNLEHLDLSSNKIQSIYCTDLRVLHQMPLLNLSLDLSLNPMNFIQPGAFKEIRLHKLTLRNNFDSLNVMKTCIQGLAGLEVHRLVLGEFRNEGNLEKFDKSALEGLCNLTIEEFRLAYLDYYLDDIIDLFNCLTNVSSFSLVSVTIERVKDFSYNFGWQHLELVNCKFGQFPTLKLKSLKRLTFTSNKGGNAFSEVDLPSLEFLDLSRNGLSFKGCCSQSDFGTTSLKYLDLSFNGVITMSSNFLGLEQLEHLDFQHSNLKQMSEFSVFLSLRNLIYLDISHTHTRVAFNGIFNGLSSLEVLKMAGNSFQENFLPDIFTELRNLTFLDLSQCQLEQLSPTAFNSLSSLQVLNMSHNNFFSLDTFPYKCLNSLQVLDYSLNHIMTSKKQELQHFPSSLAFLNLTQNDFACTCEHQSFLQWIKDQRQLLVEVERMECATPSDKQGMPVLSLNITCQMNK
smiles,measurement,setting,value
"CCCCCCCC/C=C\CCCCCCCC(=O)O[C@H](COC(=O)CCCCCCCCCCCCCCC)COP(=O)(O)OCC(O)CO (stereo partly drawn) [POPG, palmitoyl-oleoyl-phosphatidylglycerol]","IL-8 production, varying concentrations of POPG","[1]; RSV multiplicity 0.5, 48 hours",inhibits IL-8 production from epithelial cells in a concentration-dependent manner
same,"inflammatory cytokine production (IL-6, IL-8)","[1]; RSV multiplicity 0.5-1, 48 h, 200 ug/ml",suppresses
same,IL-6 production,[1]; [8],inhibits
same,IL-8 production,[1]; [8],inhibits
same,activity of TLR9 (TNFα production),[2],not
same,inhibition of the MD-2/TLR4 interaction,[3]; lipid competitor up to 200 μg/ml,approximately 75%
same,inhibition of the MD-2/TLR4 interaction,[3]; low levels of lipid competitor (20 μg/ml),40%
same,binding to sTLR4,[4],not
same,killing of cells by RSV,"[5]; multiplicity 0.5-1, 72 h, 200 ug/ml",prevents the killing
same,cytopathic effects of RSV,"[5]; multiplicity 3, 72 h, lipid 200 ug/ml",prevents the cytopathic effects
same,activity of TLR3 (IL-8 production),[6],inhibits
same,influenza-A induced IL-8 production,[7],suppresses
